In patent publication US20130296236A1, “TREATMENT PROTOCOL OF DIABETES TYPE 2” (priority 2011, published 2013):

Tested on: patients with type 2 diabetes
Format: in vivo, human
Conditions: reduction from […]; insulin glargine on top of metformin +/- TZDs, before randomized treatment
Experimental: The study consisted of 3 periods: (1) an up to 14-week screening period, which included an up to 2-week screening phase and a 12-week run-in phase with the introduction and titration of insulin glargine on top of metformin+/−TZDs; patients started insulin glargine once daily and titrated the insulin dose by a treat-to-target regimen to reach a glycemic target of FPG 100-80 mg/dl (5.6-4.4 mmol/L) during run-in.
Of note, per protocol, insulin dose adjustment to maintain fasting plasma glucose at target was allowed in both treatment groups throughout the study.

Gly(A21)-Arg(B31)-Arg(B32)-human insulin [insulin glargine]
Mean HbA1c after the 12-week run-in phase, lixisenatide group: 7.56%
Mean HbA1c after the 12-week run-in phase, placebo group: 7.60%
